# Results from patent publication US20110045998A1, “CANDIDATE GENES AND BLOOD BIOMARKERS FOR BIPOLAR MOOD DISORDER, ALCOHOLISM AND STRESS DISORDER” (priority 2007, published 2011).
# “Also recorded” adds a separate entry of the source. Like-named read-outs stand apart in the source and are kept apart here.
# Legend:
# DBP KO NST mice = test: Locomotor pattern testing (open field video tracking) after acute methamphetamine, non-stressed mice; assay type: in vivo; conditions: methamphetamine 10 mg/kg intra-peritoneal
# Method: Drugs: Mice were administered saline, valproate (200 mg/kg), or methamphetamine (10 mg/kg) acutely by intra-peritoneal injection.
# Locomotor Pattern Testing: A SMART II Video Tracker (VT) system (San Diego Instruments, San Diego, Calif.) was used to track movement of mice immediately after drug administration and again 24 hours later. After injection, mice were placed in the lower-right-hand corner of one of four adjacent, 41×41×34-cm^3 enclosures. Mice had no physical contact with other mice during testing. Each enclosure has nine pre-defined areas, i.e. center area, corner area, and wall area. The movements of the mice were recorded for 30 minutes.
# Measures of overall locomotor activity were obtained and represented by the total distance traveled within and between each of the nine regions of the enclosure. Two categories of behavior were obtained. First, the amount of locomotor activity was assessed by using the total distance traveled in the open field in a 30-minute interval. Second, the spatial scaling exponent, d, or spatial D, was obtained. Spatial D is a quantified measure of the geometric patterns of locomotor activity. Briefly, spatial d is a measure of the non-linear nature of an animal's locomotor movement and is quantified on a scale from 1 to 2; with d=1 indicating extremely linear movement and d=2 representing highly non-linear locomotor movement.
# Data and Statistical Analysis: Two-way analyses of variance (ANOVAs) were used to compare total distance traveled and spatial d. Genotype and/or drug treatment were between-subjects variables, and time was a within-subjects variable. All computations were conducted with SPSS statistical software (SPSS Inc., Chicago, Ill.).
# Non-Stress (NST) vs. Stress (ST) Experiments: For the Non-Stress (NST) experiments, mice were group housed. For the Stress (ST) experiments, mice were subjected to a chronic stress paradigm consisting of isolation (single housing) for one month, with an acute stressor (behavioral challenge tests) in Week 3. […] At four weeks, mice were injected with either saline or methamphetamine.
# [1] = test system: brain gene expression (PFC, AMY, CP, VT); parameters: key: I—Increased in expression; D—decreased in expression; conditions: cited from earlier work
# DBP KO mice = test: Sleep deprivation experiments with valproate pre-treatment, locomotor activity by video tracking; assay type: in vivo
# Method: To further characterize the behavioral phenotype of the DBP KO mice, group-housed (NST) male DBP KO mice were subjected to sleep deprivation for a 24 hour period. Following sleep deprivation, sleep-deprived (SD) mice and control non sleep-deprived (NSD) mice were monitored with video-tracking software. […] In a second sleep deprivation experiment, mice were pre-treated with an IP valproate injection (200 mg/kg) immediately prior to the sleep deprivation experiment. If the change in locomotor behavior that accompanies sleep-deprivation in the SD animals is representative of an endophenotype that is associated with bipolar disorder, then administration of the mood stabilizing agent valproate should counteract the behavioral response of DBP KO mice to sleep deprivation. […] Sleep Deprivation Experiments: Sleep deprivation studies consisted of light cycle changes, with no handling of animals involved, to avoid inducing non-sleep related handling stress confounds. Male DBP KO mice were used in the sleep deprivation experiments as follows: sleep deprived (SD) animals were removed from the standard housing room with a 12 hour off/12 hour on (reverse) light cycle and kept in a dark room overnight the night before the experiment. Non-sleep deprived (NSD) animals were kept in the housing room with the standard light cycle the night before the experiment to allow for a normal night's sleep. […]
smiles,measurement,setting,value
CN[C@@H](C)Cc1ccccc1 [methamphetamine],"stereotypy, as measured by Spatial Deviance",DBP KO NST mice; DBP KO NST mice,reduction in stereotypy
same,Total Distance Traveled,"DBP KO NST mice; DBP KO NST mice, 30 minutes open field",reversed this decrease
same,"stereotypy, as measured by Spatial Deviance",DBP KO NST mice; WT mice,trend towards an increase in stereotypy
same,"Cdk5r1 expression, Bipolar CFG (Ogden et al. 2004)","[1]; AMY, Cat II",AMY Cat II-Meth(D) VPA(D)
same,"Ckmt1 expression, Bipolar CFG (Ogden et al. 2004)","[1]; AMY, Cat III",AMY Cat III-Meth(I) VPA(I)
same,"Sec24d expression, Bipolar CFG (Ogden et al. 2004)","[1]; AMY, Cat III",AMY Cat III-Meth(I)
same,"Gas5 expression, Bipolar CFG (Ogden et al. 2004)","[1]; AMY, Cat IV",AMY Cat IV-Meth(I)
same,"Gnb1 expression, Bipolar CFG (Ogden et al. 2004)","[1]; AMY, Cat IV",AMY Cat IV-Meth (I)
same,"Mef2a expression, Bipolar CFG (Ogden et al. 2004)","[1]; AMY, Cat IV",AMY Cat IV-Meth (D)
same,"Ttr expression, Bipolar CFG (Ogden et al. 2004)","[1]; CP, Cat IV",CP Cat IV-Meth(I)
same,"Gpr88 expression, Bipolar CFG (Ogden et al. 2004)","[1]; PFC, Cat I",PFC Cat I-Meth(I) VPA (I)
same,"Mef2c expression, Bipolar CFG (Ogden et al. 2004)","[1]; PFC, Cat I",D
same,"Penk1 expression, Bipolar CFG (Ogden et al. 2004)","[1]; PFC, Cat I",PFC Cat I-Meth(I) VPA(I)
same,"Ppp1r1b/Darp32 expression, Bipolar CFG (Ogden et al. 2004)","[1]; PFC, Cat I",PFC Cat I-Meth(I) VPA(I)
same,"Tac1 expression, Bipolar CFG (Ogden et al. 2004)","[1]; PFC, Cat I",PFC Cat I-Meth(I) VPA(I)
same,"Alcam expression, Bipolar CFG (Ogden et al. 2004)","[1]; PFC, Cat III",PFC Cat III-Meth(D)
same,"Ddx6 expression, Bipolar CFG (Ogden et al. 2004)","[1]; PFC, Cat III",PFC Cat III-Meth (D)
same,"Gng7 expression, Bipolar CFG (Ogden et al. 2004)","[1]; PFC, Cat III",PFC Cat III-Meth(I) VPA(I)
same,"Scn4b expression, Bipolar CFG (Ogden et al. 2004)","[1]; PFC, Cat III",PFC Cat III-Meth(I) VPA(I)
same,"Actb expression, Bipolar CFG (Ogden et al. 2004)","[1]; PFC, Cat IV",PFC Cat IV-Meth (D)
same,"Arhgap5 expression, Bipolar CFG (Ogden et al. 2004)","[1]; PFC, Cat IV",PFC Cat IV-Meth (I)
same,"Gabra4 expression, Bipolar CFG (Ogden et al. 2004)","[1]; PFC, Cat IV",PFC Cat IV-METH (I)
same,"Gsk3b expression, Bipolar CFG (Ogden et al. 2004)","[1]; PFC, Cat IV",PFC Cat IV-METH (D)
same,"Hectd1 expression, Bipolar CFG (Ogden et al. 2004)","[1]; PFC, Cat IV",PFC Cat IV-Meth(D)
same,"Peg3 expression, Bipolar CFG (Ogden et al. 2004)","[1]; PFC, Cat IV",PFC Cat IV-Meth(D)
same,"Pten expression, Bipolar CFG (Ogden et al. 2004)","[1]; PFC, Cat IV",PFC Cat IV-Meth(D)
same,"Tmod2 expression, Bipolar CFG (Ogden et al. 2004)","[1]; PFC, Cat IV",PFC Cat IV-METH (D)
same,"Alcam expression, Bipolar CFG (Ogden et al. 2004)","[1]; VT, Cat IV",VT Cat IV-Meth(D)
same,"Ddx6 expression, Bipolar CFG (Ogden et al. 2004)","[1]; VT, Cat IV",VT Cat IV-Meth (D)
"CCCC(CCC)C(=O)O [valproate, valproic acid]",locomotion in NSD animals,"DBP KO mice; NSD DBP KO mice, valproate 200 mg/kg vs non-valproate treated",did not have any significant effect on locomotion
same,"total distance traveled, sleep-deprived (SD) vs non sleep-deprived (NSD)","DBP KO mice; male DBP KO mice, IP valproate 200 mg/kg prior to 24 hour sleep deprivation",increase in locomotion is prevented; also recorded: no significant difference in the locomotor behavior of SD and NSD animals
same,"Cdk5r1 expression, Bipolar CFG (Ogden et al. 2004)","[1]; AMY, Cat II",AMY Cat II-Meth(D) VPA(D)
same,"Cacnb2 expression, Bipolar CFG (Ogden et al. 2004)","[1]; AMY, Cat III",AMY Cat III-VPA(D)
same,"Ckmt1 expression, Bipolar CFG (Ogden et al. 2004)","[1]; AMY, Cat III",AMY Cat III-Meth(I) VPA(I)
same,"Ids expression, Bipolar CFG (Ogden et al. 2004)","[1]; AMY, Cat III",AMY Cat III-VPA(D)
same,"Mef2c expression, Bipolar CFG (Ogden et al. 2004)","[1]; AMY, Cat III",AMY Cat III-VPA(D)
same,"Ptov1 expression, Bipolar CFG (Ogden et al. 2004)","[1]; AMY, Cat III",AMY Cat III-VPA(I)
same,"Actb expression, Bipolar CFG (Ogden et al. 2004)","[1]; AMY, Cat IV",AMY Cat IV-VPA (I)
same,"Alcam expression, Bipolar CFG (Ogden et al. 2004)","[1]; AMY, Cat IV",AMY Cat IV-VPA(D)
same,"Atp8a1 expression, Bipolar CFG (Ogden et al. 2004)","[1]; AMY, Cat IV",AMY Cat IV-VPA(D)
same,"Clasp2 expression, Bipolar CFG (Ogden et al. 2004)","[1]; AMY, Cat IV",AMY Cat IV-VPA(D)
same,"Peg3 expression, Bipolar CFG (Ogden et al. 2004)","[1]; AMY, Cat IV",AMY Cat IV-VPA(D)
same,"Ptpn5/Step expression, Bipolar CFG (Ogden et al. 2004)","[1]; AMY, Cat IV",AMY Cat IV-VPA (I)
same,"Sez6 expression, Bipolar CFG (Ogden et al. 2004)","[1]; AMY, Cat IV",AMY Cat IV-VPA(I)
same,"Timp2 expression, Bipolar CFG (Ogden et al. 2004)","[1]; AMY, Cat IV",AMY Cat IV-VPA (D)
same,"Cdk5r1 expression, Bipolar CFG (Ogden et al. 2004)","[1]; CP, Cat III",CP Cat III-VPA(I)
same,"Alcam expression, Bipolar CFG (Ogden et al. 2004)","[1]; CP, Cat IV",CP Cat IV-VPA(D)
same,"Cacnb2 expression, Bipolar CFG (Ogden et al. 2004)","[1]; CP, Cat IV",CP Cat IV-VPA(I)
same,"Gnb1 expression, Bipolar CFG (Ogden et al. 2004)","[1]; CP, Cat IV",CP Cat IV-VPA (D)
same,"Ids expression, Bipolar CFG (Ogden et al. 2004)","[1]; CP, Cat IV",CP Cat IV-VPA(I)
same,"Mef2a expression, Bipolar CFG (Ogden et al. 2004)","[1]; CP, Cat IV",CP Cat IV-VPA (I)
same,"Gsk3b expression, Bipolar CFG (Ogden et al. 2004)","[1]; CP, IV",CP IV-VPA (D)
same,"Gpr88 expression, Bipolar CFG (Ogden et al. 2004)","[1]; PFC, Cat I",PFC Cat I-Meth(I) VPA (I)
same,"Mef2c expression, Bipolar CFG (Ogden et al. 2004)","[1]; PFC, Cat I",I
same,"Penk1 expression, Bipolar CFG (Ogden et al. 2004)","[1]; PFC, Cat I",PFC Cat I-Meth(I) VPA(I)
same,"Ppp1r1b/Darp32 expression, Bipolar CFG (Ogden et al. 2004)","[1]; PFC, Cat I",PFC Cat I-Meth(I) VPA(I)
same,"Tac1 expression, Bipolar CFG (Ogden et al. 2004)","[1]; PFC, Cat I",PFC Cat I-Meth(I) VPA(I)
same,"Gng7 expression, Bipolar CFG (Ogden et al. 2004)","[1]; PFC, Cat III",PFC Cat III-Meth(I) VPA(I)
same,"Scn4b expression, Bipolar CFG (Ogden et al. 2004)","[1]; PFC, Cat III",PFC Cat III-Meth(I) VPA(I)
